Legend:
[1] = tested on: Human oral mucosa 3D models (composed of human gingival keratinocytes); assay: Irritation testing in 3D cultured oral epithelial cells (MTT); assay type: cell-based; details: 4 hr
Protocol: Human oral mucosa 3D models (composed of human gingival keratinocytes) were exposed topically to CCP-042 oral adhesive film (0.1%, 0.2%, and 0.3%) for 4 hr before viability assessment. Cell viability was measured by MTT assay on tissues, in triplicate. 1% Triton X-100 was used as positive control. The reduction of the viability of tissues exposed to formulations as compared to that of PBS-treated negative controls were used to predict the skin irritation potential using European Union (EU) and Globally Harmonized System (GHS) classifications, which define an irritant as a substance that reduces the viability of the exposed tissue to less than 50% of the viability of untreated controls.

[2] = tested on: Human gingival keratinocytes; assay: Cytotoxicity in 2D cultured oral epithelial cells (Cell Titer96 Aqueous One); assay type: cell-based; details: seven concentrations 0.3 to 0.00003%, 24 h
Protocol: Human gingival keratinocytes derived from a single donor were cultured at 37° C. with 5% CO2, and 95% humidity in a 96-well plate for cytotoxicity evaluation. Cells were incubated in the presence of seven concentrations of isotretinoin ranging from 0.3 to 0.00003% for 24 h in triplicate. Untreated cells were used as baseline control. Cytotoxicity was evaluated using the Cell Titer96 Aqueous One (Promega, WI, USA) basic test according to manufacturer's instructions using an absorbance of 490 nm for the final colorimetric readings.

## CC1=C(/C=C/C(C)=C/C=C/C(C)=C\C(=O)O)C(C)(C)CCC1 [isotretinoin, (2Z,4E,6E,8E)-3,7-dimethyl-9-(2,6,6-trimethylcyclohex-1-en-1-yl)nona-2,4,6,8-tetraenoic acid]
[1]; concentration 0.1%
  toxicity to 3D tissue: not toxic
[1]; concentration 0.2%
  toxicity to 3D tissue: not toxic
[2]
  cytotoxicity (inhibition of viability of more than 20% of control): toxic

From patent US10813880B2, “Isotretinoin oral-mucosal formulations and methods for using same” (Skyline Biosciences LLC, priority 2017, dated 2020)
